Assay results from patent EP0830136B1, “NEW CRY[…] […]” (priority 1995, dated 1996).
Entries after “also recorded” stand apart in the source; their conditions may differ. Like-named read-outs stand apart in the source and are kept apart here.

Key:
[1] = Methanolysis (solvolysis) of the C-D ester bond; format: physicochemical; conditions: methanol used in the isolation scheme
tumors implanted in mice = conditions: for in vivo antitumor activity: statement in words; for T/C values / gross log kill values: summary over trials, partly worded 'mostly'
physchem = conditions: aqueous base, pH 11
KB = test: In vitro cytotoxicity, KB cell line; format: cell-based, human; conditions: read-out: RB IC50
LoVo = test: In vitro cytotoxicity, LoVo cell line; format: cell-based, human
Colon 51 = conditions: SC Tumor Colon 51
Mam 16/C = conditions: SC Tumor Mam 16/C
[2] = test system: human tumor cell lines KB and LoVo; test: In vitro cytotoxicity, KB and LoVo; conditions: read-out: cytotoxicities IC50's
Mam 16/Taxol = conditions: Exp # 1733; SC Tumor Mam 16/Taxol; 5 Inj. IV; 16.5 mg/kg Total Dose
Description: (§1) Gross log kill is defined as T-C/3.2 Td where T is the median time in days for the tumors of the treated group to reach 750mg, C is the median time in days for the tumors of the control group to reach 750mg, and Td is the tumor volume doubling time (T.H. Corbett et al., Cytotoxic Anticancer Drugs: Models and Concepts for Drug Discovery and Development, pp 35-87; Kluwer: Norwell, 1992).

M17/0 (Adr. Sens.) = conditions: Exp # 1833; SC Tumor M17/0 (Adr. Sens.); 5 Inj. IV; 5.4 mg/kg Total Dose
Description: as §1

[3] = test system: Human Sm Cell L. DMS273 SCID; conditions: Exp # 1596; SC Tumor Human Sm Cell L. DMS273 SCID; 6 Inj. IV; 7.3 mg/kg Total Dose
Description: as §1

MX-1 Human Breast = conditions: Exp # 1806; SC Tumor MX-1 Human Breast; 8 Inj. IV; 12 mg/kg Total Dose
Description: as §1

H125 Human Adenosq-lung = conditions: Exp # 1823; SC Tumor H125 Human Adenosq-lung; 8 Inj. IV; 14.4 mg/kg Total Dose
Description: as §1

LNCaP Human Prostate = conditions: Exp # 1841; SC Tumor LNCaP Human Prostate; 6 Inj. IV; 6.5 mg/kg Total Dose
Description: as §1

SKOV3 cells = test: Cell proliferation assay (SRB staining), SKOV3; format: cell-based, Human; conditions: 24 hours with IC50 doses
SKVLB1 cells = test: cells; format: cell-based; conditions: Homo sapiens, SKVLB1, 48 h, read-out: SKVLB1 IC50 (nM)
Description: The Jurkat T cell leukemia line and A-10 rat aortic smooth muscle cells were obtained from the American Type Culture Collection and were cultured in BME containing 10% FBS and 50µg/mL gentamycin sulfate. […] Both cell lines were maintained in BME containing 10% FBS and 50µg/mL gentamycin sulfate.
Cell proliferation assays were performed as described by Skehan et al.^11 For Jurkat cells, cultures were treated with the indicated drugs as described in Skehan^11 and total cell numbers were determined by counting the cells in a hemacytometer. The percentage of cells in mitosis was determined by staining with 0.4% Giemsa in PBS followed by three rapid washes with PBS. At least 1000 cells per treatment were scored for the presence of mitotic figures and the mitotic index was calculated as the ratio of cells with mitotic figures to the total number of cells counted.

[4] = test system: A-10 rat aortic smooth muscle cells; test: Immunofluorescence of cytoskeleton in A-10 cells; format: cell-based; conditions: A-10 cells
Description: A-10 cells were grown to near-confluency on glass coverslips in BME/10% FBS. Compounds in PBS were added to the indicated final concentrations and cells were incubated for an additional 24 hours. For the staining of microtubules and intermediate filaments, the cells were fixed with cold methanol and incubated with PBS containing 10% calf serum to block nonspecific binding sites. Cells were then incubated at 37°C for 60 min with either monoclonal anti-β-tubulin or with monoclonal anti-vimentin at dilutions recommended by the manufacturer. Bound primary antibodies were subsequently visualized by a 45-minute incubation with fluorescein-conjugated rabbit antimouse IgG. The coverslips were mounted on microscope slides and the fluorescence patterns were examined and photographed using a Zeiss Photomicroscope ill equipped with epifluorescence optics for fluorescein. […] PBS containing 100nM TRITC-phalloidin was then added and the mixture was allowed to incubate for 45 min at 37° C. The cells were washed rapidly three times with PBS before the coverslips were mounted and immediately photographed as described above.

Colon 26 = test: In vivo activity, Colon 26 experiment; design: species or system mice
Description: as §1

[5] = Exp # 1813, SC Tumor P03, 9 Inj. IV, 27 mg/kg TD
[6] = Exp # 1887 B, SC Tumor C38, 6 Inj. IV, 30 mg/kg TD
[7] = Exp # 1825, SC Tumor P03, 11 Inj. IV, 106 mg/kg TD
[8] = Exp # 1900, 9 Inj. IV, 67.5 mg/kg TD
[9] = Exp # 1885, 7 Inj. IV, 21.3 mg/kg TD
[10] = Exp # 1560, SC Tumor Colon 38, 8 Inj. IV, 10.3 mg/kg Total Dose
[11] = Exp # 1636, 7 Inj. IV, 28.1 mg/kg Total Dose
[12] = Exp # 1720, 5 Inj. IV, 13.2 mg/kg Total Dose
[13] = Exp # 1878, SC Tumor P03, 9 Inj. IV, 82 mg/kg TD
[14] = Exp # 1843, SC Tumor P03, 4 Inj. IV, 28/5 mg/kg TD
[15] = 24 hours, 2µM cytochalasin B, 100nM vinblastine or 10nM cryptophycin compounds
[16] = Exp # 1843, SC Tumor P03, 7 Inj. IV, 23 mg/kg TD

COc1ccc(C[C@H]2NC(=O)/C=C/C[C@@H]([C@H](C)[C@H]3O[C@@H]3c3ccccc3)OC(=O)[C@H](CC(C)C)OC(=O)CCNC2=O)cc1Cl [Cryptophycin 21]
methanolysis of the C-D ester bond [1]: considerable methanolysis; also recorded: much more susceptible to methanolysis than Cryptophycin 1 | % Body Wt. Loss at Nadir (Panc 03; [5]): -11% | Cures (Panc 03; [5]): 0/5 | Log Kill (Panc 03; [5]): None | T/C (Panc 03; [5]): 61% | dead (Panc 03; [5]): 1/5 | in vivo antitumor activity (tumors implanted in mice): inactive | half-life (physchem): 15 min

COc1ccc(C[C@H]2NC(=O)/C=C/C[C@@H]([C@H](C)[C@@H](O)[C@@H](Br)c3ccccc3)OC(=O)[C@H](CC(C)C)OC(=O)[C@H](C)CNC2=O)cc1Cl [Cryptophycin 25]
T/C and gross log kill values, comparison in words (tumors implanted in mice; mouse, in vivo): comparable with those for Cryptophycin 1

COc1ccc(C[C@H]2NC(=O)/C=C/C[C@@H]([C@H](C)[C@@H](O)[C@@H](O)c3ccccc3)OC(=O)[C@H](CC(C)C)OC(=O)[C@H](C)CNC2=O)cc1Cl [Cryptophycin 15]
in vivo antitumor activity (tumors implanted in mice): antitumor activity is greatly diminished

COc1ccc(C[C@H]2NC(=O)/C=C/C[C@@H]([C@H](C)[C@@H](O)[C@@H](Cl)c3ccccc3)OC(=O)[C@H](CC(C)C)OC(=O)[C@H](C)CNC2=O)cc1Cl [Cryptophycin 8]
IC50 (KB): 0.019 nM | IC50 (LoVo): 0.0091 nM | % Body Wt. Loss at Nadir (Colon 38; [6]): -2% | Cures (Colon 38; [6]): 1/5 | Log Kill (Colon 38; [6]): 2.8 | T/C (Colon 38; [6]): 0% | % Body Wt. Loss at Nadir (Panc 03; [7]): -6% | Cures (Panc 03; [7]): 0/5 | T/C (Panc 03; [7]): 4% | Log Kill (Panc 03; mouse, in vivo, 106 mg/kg): 4.6 | % Body Wt. Loss at Nadir (Colon 51; [8]): -1% | Cures (Colon 51; [8]): 0/5 | Log Kill (Colon 51; [8]): 1.8 | T/C (Colon 51; [8]): 7% | % Body Wt. Loss at Nadir (Mam 16/C; [9]): -4.5% | Cures (Mam 16/C; [9]): 0/5 | Log Kill (Mam 16/C; [9]): 2.5 | T/C (Mam 16/C; [9]): 6% | T/C values (tumors implanted in mice): 0% | gross log kill values (tumors implanted in mice): > 2.8 | IC50 [2]: 0.009 to 0.019 nM

COc1ccc(C[C@H]2NC(=O)/C=C/C[C@@H]([C@H](C)[C@H]3O[C@@H]3c3ccccc3)OC(=O)[C@H](CC(C)C)OC(=O)[C@H](C)CNC2=O)cc1Cl [Cryptophycin 1]
IC50 (KB): 0.0092 nM | IC50 (LoVo): 0.0104 nM | methanolysis of the C-D ester bond [1]: considerable methanolysis | % Body Wt. Loss at Nadir (Colon 38; [10]): Gain | Cures (Colon 38; [10]): 0/5 | Log Kill (Colon 38; [10]): 1.5 | T/C (Colon 38; [10]): 6% | % Body Wt. Loss at Nadir (Colon 51; [11]): -11% | Cures (Colon 51; [11]): 0/5 | Log Kill (Colon 51; [11]): 1.3 | T/C (Colon 51; [11]): 7% | % Body Wt. Loss at Nadir (Mam 16/C; [12]): -1% | Cures (Mam 16/C; [12]): 0/5 | Log Kill (Mam 16/C; [12]): 1.4 | T/C (Mam 16/C; [12]): 5% | % Body Wt. Loss at Nadir (Mam 16/Taxol): 0% | Cures (Mam 16/Taxol): 0/5 | Log Kill (Mam 16/Taxol): 1.8 | T/C (Mam 16/Taxol): 2% | % Body Wt. Loss at Nadir (M17/0 (Adr. Sens.)): -10% | Cures (M17/0 (Adr. Sens.)): 0/5 | Log Kill (M17/0 (Adr. Sens.)): <1 | T/C (M17/0 (Adr. Sens.)): 23% | % Body Wt. Loss at Nadir [3]: 0% | Cures [3]: 0/5 | Log Kill [3]: <1 | T/C [3]: 27% | % Body Wt. Loss at Nadir (MX-1 Human Breast): -3% | Cures (MX-1 Human Breast): 0/5 | Log Kill (MX-1 Human Breast): 2.0 | T/C (MX-1 Human Breast): 3% | % Body Wt. Loss at Nadir (H125 Human Adenosq-lung): -15% | Cures (H125 Human Adenosq-lung): 0/5 | Log Kill (H125 Human Adenosq-lung): 1.1 | T/C (H125 Human Adenosq-lung): 9% | dead (H125 Human Adenosq-lung): 1/5 | % Body Wt. Loss at Nadir (LNCaP Human Prostate): -6% | Cures (LNCaP Human Prostate): 0/5 | Log Kill (LNCaP Human Prostate): <1 | T/C (LNCaP Human Prostate): 26% | toxicity in animals (tumors implanted in mice; compared with Cryptophycin 8): appreciable toxicity | T/C values (tumors implanted in mice): > 0% | gross log kill values (tumors implanted in mice): < 2.0 | half-life (physchem): 49.8 min | IC50 [2]: 0.009 to 0.029 nM

CC(C)C[C@@H]1OC(=O)[C@H](C)CNC(=O)[C@@H](Cc2ccc(O)c(Cl)c2)NC(=O)/C=C/C[C@@H]([C@H](C)[C@H]2O[C@@H]2c2ccccc2)OC1=O [Cryptophycin 16]
% Body Wt. Loss at Nadir (Panc 03; [13]): -1% | Cures (Panc 03; [13]): 0/5 | Log Kill (Panc 03; [13]): None | T/C (Panc 03; [13]): 89%

COc1ccc(C[C@H]2NC(=O)/C=C/C[C@@H]([C@H](C)/C=C/c3ccccc3)OC(=O)[C@H](CC(C)C)OC(=O)[C@H](C)CNC2=O)cc1Cl [Cryptophycin 3]
IC50 (KB): 3.1 to 4.6 nM | IC50 (LoVo): 1.9 to 5.8 nM | % Body Wt. Loss at Nadir (Panc 03; [14]): -9% | Cures (Panc 03; [14]): 0/5 | Log Kill (Panc 03; [14]): <1 | T/C (Panc 03; [14]): 54% | in vivo antitumor activity (tumors implanted in mice): antitumor activity is greatly diminished | IC50 [2]: 3.5 to 5.8 nM

COc1ccc(C[C@H]2NC(=O)/C=C/C[C@@H]([C@H](C)/C=C/c3ccccc3)OC(=O)[C@H](CC(C)C)OC(=O)C(C)(C)CNC2=O)cc1Cl [Cryptophycin 51]
IC50 [2]: 3.5 to 5.8 nM

CC(=O)O[C@H]1C(=O)[C@@]2(C)[C@H]([C@H](OC(=O)c3ccccc3)[C@]3(O)C[C@H](OC(=O)[C@H](O)[C@@H](NC(=O)c4ccccc4)c4ccccc4)C(C)=C1C3(C)C)[C@]1(OC(C)=O)CO[C@@H]1C[C@@H]2O [taxol]
increase in cell number during treatment (SKOV3 cells): 25% | IC50 (SKVLB1 cells): 8000 nM | microtubule organization in taxol-treated cells ([4]; 10µM taxol): extensively bundled

COc1ccc(C[C@H]2NC(=O)/C=C/C[C@@H]([C@H](C)[C@@H](O)[C@@H](Cl)c3ccccc3)OC(=O)[C@H](CC(C)C)OC(=O)C(C)(C)CNC2=O)cc1Cl [Cryptophycin 55]
gross log kill value (Colon 26): 1.2 | total dosage required in vivo relative to comparator (tumors implanted in mice; mouse, in vivo): three times the total dosage compared with Cryptophycin 8 | in vivo antitumor activity (tumors implanted in mice): active in vivo | IC50 [2]: 0.033 to 0.047 nM

C=C1[C@@H](C)[C@H]2[C@H](Cc3ccccc3)NC(=O)[C@]23OC(=O)/C=C/[C@H](O)CCC[C@@H](C)C/C=C/[C@H]3[C@@H]1O [Cytochalasin B, cytochalasin B]
effect on microfilaments [4, 15]: complete depolymerization of microfilaments | effect on microtubules [4, 15]: did not affect the distribution of either mierotubules or intermediate filaments | effect on vimentin intermediate filaments [4, 15]: did not affect the distribution of either mierotubules or intermediate filaments

COc1ccc(CC2NC(=O)CCCC(C(C)C3OC3c3ccccc3)OC(=O)C(CC(C)C)OC(=O)C(C)CNC2=O)cc1Cl (stereo not shown) [Cryptophycin 35]
% Body Wt. Loss at Nadir (Panc 03; [16]): -2% | Cures (Panc 03; [16]): 0/5 | Log Kill (Panc 03; [16]): 1.3 | T/C (Panc 03; [16]): 11%
